Measurements from patent publication US20170314056A1, “METHOD OF USING NEAR INFRARED FLUORESCENT DYES FOR IMAGING AND TARGETING CANCERS” (priority 2010, published 2017).
Entries after “also recorded” stand apart in the source; their conditions may differ.

Experiments:
[1] = tested on: TRAMP mouse prostate tumors; assay: Detection of spontaneous prostate tumors in TRAMP transgenic mice; format: in vivo
Description: The uptake of cyanine dyes by the TRAMP mouse prostate model and the Apc^Min/+ mouse-adenoma model (obtained from The Jackson Laboratory, Bar Harbor, Me.) was assessed by a similar protocol as described above. We also utilized the Olympus OV100 imaging system to detect adenoma in the Apc^Min/+ mouse model. In brief, mice were injected intraperitoneally with IR-783 dye at a dose of 10 nmol/20 g body weight and animals were subjected to total body cyanine dye imaging as described above. Animals were sacrificed at 48 hrs after dye administration and tumors were dissected and subjected to NIR imaging. The presence of tumor cells in tissue specimens was confirmed by histopathologic analysis.

[2] = tested on: ARCaPM orthotopic tumor metastases; assay: Detection of metastases of orthotopic ARCaPM tumors in mice; format: in vivo, mouse; details: orthotopic ARCaPM (ARCaP) model; bone and soft tissue metastases
Description: The spontaneous metastasis of ARCaPM tumor cells stably transduced with an AsRed2 red fluorescence protein (RFP) (Clontech, Mountain View, Calif.) by injecting these cells orthotopically in mice was studied. ARCaPM-RFP metastasis was determined by the same procedures described above for capturing cyanine dye tumor imaging after IR-783 i.p. injection at a dose of 10 nmol/20 g. In addition, at the time of sacrifice both frozen and paraffin embedded tissue sections were obtained for RFP and confocal fluorescence imaging. Positive identification of ARCaPM-RFP cells was accomplished by fluorescence microscopy and validated by subculturing ARCaPM-RFP cells directly from bone metastasis tissue specimens.

P69 cells = assay: Live-cell kinetics of dye uptake in normal prostate epithelial cells; format: cell-based, human
Description: Cells were plated on live-cell imaging chambers (World Precision Instrument, Sarasota, Fla.) overnight. Cells were exposed to cyanine dyes at different concentrations and dye uptake was evaluated by a Perkin-Elmer Ultraview ERS spinning disc confocal microscope. This system was mounted on a Zeiss Axiovert 200m inverted microscope equipped with a 37° C. stage warmer, incubator, and constant CO2 perfusion. A 63× or 100× Zeiss oil objective (numerical aperture, 1.4) was used for live cell images and a Z-stack was created using the attached piezoelectric z-stepper motor. The 633 nm laser line of an argon ion laser (set at 60% power) was used to excite the cyanine dyes. […] For comparative studies, the exposure time and laser intensity were kept identical for accurate intensity measurements. Pixel intensity was quantified using Metamorph 6.1 (Universal Imaging, Downingtown, Pa.) and the mean pixel intensity was generated as grey level using the Region Statistics feature on the software (23). To determine the dye uptake by the mitochondria, the mitochondrial tracking dye Mito Tracker Orange CMTMROS (Molecular Probes, Carlsbad, Calif.) was used. To determine the dye localization in lysosomes, a lysosome tracking dye, Lyso Tracker Green DND-26 (Molecular Probes, Carlsbad, Calif.), was selected. Imaging of mitochondrial and/or lysosome localization of the cyanine dye was conducted under confocal microscopy (24).
To determine if the cyanine dye uptake and accumulation in cancer cells was dependent upon OATPs, cells were preincubated with 250 μM bromosulfophthalein (BSP), a competitive inhibitor of organic anion transporting peptides (OATPs) (25), for 5 minutes prior to incubating the cells with cyanine dyes. The uptake and accumulation of cyanine dyes in the presence and absence of BSP were conducted in the stage warmer incubator for a period of 35 minutes. The levels of cyanine dye taken up and accumulated in normal prostate (P69) and prostate cancer (ARCaPM) cells were determined and compared on a real-time basis.

renal cancer cells = assay: Subcellular co-localization in renal cancer cells; format: cell-based, human; details: Mito tracker and Lyso tracker overlay
Description: To determine the dye uptake by the mitochondria, the mitochondrial tracking dye, Mito Tracker Orange CMTMROS (Molecular Probes, Carlsbad, Calif.), was used. To determine the dye localization in lysosomes, a lysosome tracking dye, Lyso Tracker Green DND-26 (Molecular Probes, Carlsbad, Calif.), was selected. Images of mitochondrial and/or lysosome localization of the cyanine dye were merged and evidence of co-localization of the cyanine dye and tracking dyes were assessed by confocal imaging using a previously established protocol.^69

[3] = Physicochemical properties of the dye
human bladder tumors = assay: Uptake in freshly harvested human bladder tumor specimens; format: cell-based
Excerpt: The inventors determined the ability of IR-783 as an imaging agent for freshly harvested human renal and bladder cancer specimens. […] Fresh tumor xenografts grown in mice (FIG. 35) are able to uptake the dye. […] The nature of this uptake at this time is not clear.

[4] = aqueous media; cited from earlier work
ARCaPM tumor = assay: Dye biodistribution in ARCaPM tumor-bearing mice; format: in vivo, mouse
Excerpt: To assess tissue distribution of these dyes, athymic mice without tumor implantation were sacrificed at 0, 6 and 80 hrs (N=3 each) after i.v. injection of IR-783 dye at a dose of 10 nmol/20 g. Dissected organs were subjected to NIR imaging by a Kodak Imaging Station 4000 MM. In another study the mice bearing orthotopic ARCaPM tumors were subjected to NIR imaging at 0.5, 24, 48, 72 and 96 hrs after IR-783 i.v. administration at a dose of 10 nmol/20 g. In some cases, we also assessed the biodistribution of NIR dye by a spectral method in tissues harvested from athymic mice bearing subcutaneous ARCaPM tumors (N=6). Tumors and normal host organs were homogenized in PBS, centrifuged at 15,000×g for 15 minutes to recover the supernatant fraction after the mice were injected i.p. with IR-783 at a dose of 10 nmol/20 g. The presence of the organic dyes (parental IR-783 and its metabolites) in tissues was estimated spectrophotometrically at an emission wavelength of 820 nm by a PTI Near Infrared Fluorometer QuantaMaster™ 50 (PTI, Birmingham, N.J.) equipped with a 75-watt xenon arc lamp under 500 to 1700 nm InGaAs detector using known concentrations of IR-783 as the standard (28). In other cases, tumor tissues harvested from mice were stored in formalin from 1 week to 3 months, and fluorescence images were obtained and compared.

2-[2-[2-Chloro-3-[2-[1,3-dihydro-3,3-dimethyl-1-(4-sulfobutyl)-2H-indol-2-ylidene]-ethylidene]-1-cyclohexen-1-yl]-ethenyl]-3,3-dimethyl-1-(4-sulfobutyl)-3H-indolium [IR-783]
detection of / dye uptake by TRAMP prostate tumors ([1]; TRAMP mice, IR-783 i.p. 10 nmol/20 g): accumulate in prostate tumors and their metastases; also recorded: could detect tumor; also recorded: active uptake; also recorded: only tumor-positive signal
NIR fluorescence of tumor specimen after formalin fixation ([1]; TRAMP tumor, formalin solution for 3 weeks): retain heptamethine cyanine NIR fluorescence; also recorded: strong NIR signal
detection of metastases by NIR imaging [2]: highly effective in localizing tumors cells in soft tissues and in bone; also recorded: both the primary tumor and the metastases in mouse tibia/femur were detected; also recorded: signals attained in IR-783 imaging reflect metastases of the orthotopic ARCaPM tumor
uptake of dye in P69 cells (P69 cells; confocal imaging, 630×): not in normal human prostate epithelial P69 cells
plateau of uptake and retention compared with ARCaP cells (P69 cells; control P69 cells): much lower plateau
start of uptake and retention (P69 cells; control P69 cells): 12 min
subcellular localization of the dye (renal cancer cells): co-localization with mitochondrial and lysosome organelles
photostability [3]: relatively photostable
water solubility [3]: water-soluble
dye uptake in normal tissue (human bladder tumors; freshly harvested bladder specimens): to a much lesser extent by normal tissue
dye uptake by fat cells and tissues (human bladder tumors; freshly harvested specimens): can also be taken up by fatty tissues; also recorded: also taken up by fat cells and tissues
dye uptake in human bladder tumor tissue (human bladder tumors; freshly harvested specimens): can be taken up; also recorded: taken up by tumor tissues
maximum absorption [4]: 782 nm
dye signal in tumor tissue (ARCaPM tumor; 24 hrs after dye, ARCaPM tumor, in vivo and ex vivo imaging): accumulate in tumor tissues; also recorded: strong signals
signal to noise ratios in tumor specimens (ARCaPM tumor; in vivo whole body and ex vivo analysis): exceeding 25
apparent concentration of dye and its metabolites in tumors versus normal tissues (ARCaPM tumor; light emission intensity at 820 nm, P<0.05, 3 determinations): ~10 fold
signals in normal organs (ARCaPM tumor; liver, lung, heart, spleen and kidneys): very low signals
time at which tumors still retained dye (ARCaPM tumor; orthotopic ARCaPM tumor, i.v. 10 nmol/20 g): ≥ 4 days
